In patent US20090298897A1, “Treatment of Inflammatory Disorders With Triazole Compounds” (priority 2006, published 2009):
Several values for one entry are separate records, joined by “and”; a condition that tells them apart may be missing. Identical values can stand only once.

How the values were obtained:
[1] = system: moderate to severe facial acne vulgaris; experiment: Treatment of acne vulgaris with oral rambazole (lesion counts); assay type: in vivo, human; details: for Table 3 (untitled, lesion count), Max. / Table 3 (untitled, lesion count), Mean / Table 3 (untitled, lesion count), Median / Table 3 (untitled, lesion count), Min. / Table 6 (untitled, summary of Table 5 lesion count), Max. / Table 6 (untitled, summary of Table 5 lesion count), Mean / Table 6 (untitled, summary of Table 5 lesion count), Median / Table 6 (untitled, summary of Table 5 lesion count), Min. / Table 4 (untitled, change of Table 3 count versus Visit 2), Max. / Table 4 (untitled, change of Table 3 count versus Visit 2), Mean / Table 4 (untitled, change of Table 3 count versus Visit 2), Median / Table 4 (untitled, change of Table 3 count versus Visit 2), Min. / Table 7 (untitled, change of Table 6 count versus Visit 2), Max. / Table 7 (untitled, change of Table 6 count versus Visit 2), Mean / Table 7 (untitled, change of Table 6 count versus Visit 2), Median / Table 7 (untitled, change of Table 6 count versus Visit 2), Min.: N 16; for Table 5 (untitled, lesion count per subject): individual subjects; for No. of Responders (≧50% reduction in inflammatory lesions): of 16 subjects
Experimental: Sixteen patients with moderate to severe facial acne vulgaris received a daily oral dose of 1 mg of rambazole for 12 weeks. […] The average lesion reduction was 79%. See Tables 3 through 7 for additional individual data. See FIGS. 5 and 6, respectively, for a comparison of the response to treatment of inflammatory lesions versus non-inflammatory lesions.

IP-10 = IP-10 expression and secretion in IFNγ-activated normal human epidermal keratinocytes (ELISA); assay type: cell-based; details: 50 U/mL IFNγ; rambazole 10^-5 M to 3×10^-8 M for 18 hours
Experimental: Fourth passage normal human epidermal keratinocytes were plated at 2,000 cells/well in low Ca^2+ KSFM. After 3 days incubation to 60% confluence, the medium was removed and cells were stimulated with 50 U/mL IFNγ and incubated with rambazole ranging from 10^-5 M to 3×10^-8 M for 18 hours. Interferon-inducible protein (IP-10) expression in the culture medium was determined using the IP-10 sandwich-type ELISA and all data were corrected for cell count. Values are represented as mean percentages±SD (n=4) versus drug solvent control.

CCC(CC)C(c1ccc(Nc2nc3ccccc3s2)cc1)n1cncn1 (centres unmarked) [rambazole]
serious adverse effects ([1]; 1 mg oral daily for 12 weeks): No serious adverse effects were reported
Table 3 (untitled, lesion count), Max. ([1]; Visit No. 2): 170
Table 3 (untitled, lesion count), Mean ([1]; Visit No. 2): 56.2
Table 3 (untitled, lesion count), Median ([1]; Visit No. 2): 48.0
Table 3 (untitled, lesion count), Min. ([1]; Visit No. 2): 15
Table 6 (untitled, summary of Table 5 lesion count), Max. ([1]; Visit No. 2): 199
Table 6 (untitled, summary of Table 5 lesion count), Mean ([1]; Visit No. 2): 81.3
Table 6 (untitled, summary of Table 5 lesion count), Median ([1]; Visit No. 2): 87.0
Table 6 (untitled, summary of Table 5 lesion count), Min. ([1]; Visit No. 2): 22
Table 5 (untitled, lesion count per subject) ([1]; Visit No. 2): 22 and 46 and 63 and 25 and 23 and 93 (2×) and 72 and 49 and 89 and 110 and 199 and 121 and 95 and 115 and 85
Table 3 (untitled, lesion count), Max. ([1]; Visit No. 4): 77
Table 3 (untitled, lesion count), Mean ([1]; Visit No. 4): 34.4
Table 3 (untitled, lesion count), Median ([1]; Visit No. 4): 34.5
Table 3 (untitled, lesion count), Min. ([1]; Visit No. 4): 3
Table 4 (untitled, change of Table 3 count versus Visit 2), Max. ([1]; Visit No. 4): 15
Table 4 (untitled, change of Table 3 count versus Visit 2), Mean ([1]; Visit No. 4): −21.8
Table 4 (untitled, change of Table 3 count versus Visit 2), Median ([1]; Visit No. 4): −10.0
Table 4 (untitled, change of Table 3 count versus Visit 2), Min. ([1]; Visit No. 4): −159
Table 6 (untitled, summary of Table 5 lesion count), Max. ([1]; Visit No. 4): 122
Table 6 (untitled, summary of Table 5 lesion count), Mean ([1]; Visit No. 4): 51.4
Table 6 (untitled, summary of Table 5 lesion count), Median ([1]; Visit No. 4): 49.5
Table 6 (untitled, summary of Table 5 lesion count), Min. ([1]; Visit No. 4): 3
Table 7 (untitled, change of Table 6 count versus Visit 2), Max. ([1]; Visit No. 4): 10
Table 7 (untitled, change of Table 6 count versus Visit 2), Mean ([1]; Visit No. 4): −29.9
Table 7 (untitled, change of Table 6 count versus Visit 2), Median ([1]; Visit No. 4): −17.5
Table 7 (untitled, change of Table 6 count versus Visit 2), Min. ([1]; Visit No. 4): −159
Table 5 (untitled, lesion count per subject) ([1]; Visit No. 4): 11 and 3 and 12 and 30 and 21 and 71 and 58 and 59 and 80 and 45 and 89 and 40 and 48 and 82 and 122 and 51
Table 3 (untitled, lesion count), Max. ([1]; Visit No. 5): 94
Table 3 (untitled, lesion count), Mean ([1]; Visit No. 5): 26.4
Table 3 (untitled, lesion count), Median ([1]; Visit No. 5): 27.0
Table 3 (untitled, lesion count), Min. ([1]; Visit No. 5): 1
Table 4 (untitled, change of Table 3 count versus Visit 2), Max. ([1]; Visit No. 5): 19
Table 4 (untitled, change of Table 3 count versus Visit 2), Mean ([1]; Visit No. 5): −29.8
Table 4 (untitled, change of Table 3 count versus Visit 2), Median ([1]; Visit No. 5): −22.0
Table 4 (untitled, change of Table 3 count versus Visit 2), Min. ([1]; Visit No. 5): −142
Table 6 (untitled, summary of Table 5 lesion count), Max. ([1]; Visit No. 5): 146
Table 6 (untitled, summary of Table 5 lesion count), Mean ([1]; Visit No. 5): 39.5
Table 6 (untitled, summary of Table 5 lesion count), Median ([1]; Visit No. 5): 40.5
Table 6 (untitled, summary of Table 5 lesion count), Min. ([1]; Visit No. 5): 1
Table 7 (untitled, change of Table 6 count versus Visit 2), Max. ([1]; Visit No. 5): 31
Table 7 (untitled, change of Table 6 count versus Visit 2), Mean ([1]; Visit No. 5): −41.8
Table 7 (untitled, change of Table 6 count versus Visit 2), Median ([1]; Visit No. 5): −45.0
Table 7 (untitled, change of Table 6 count versus Visit 2), Min. ([1]; Visit No. 5): −140
Table 5 (untitled, lesion count per subject) ([1]; Visit No. 5): 9 and 1 and 4 (2×) and 2 (2×) and 48 and 64 and 42 and 39 and 33 and 80 and 59 and 55 and 44 and 146
Table 3 (untitled, lesion count), Max. ([1]; Visit No. 6): 37
Table 3 (untitled, lesion count), Mean ([1]; Visit No. 6): 12.8
Table 3 (untitled, lesion count), Median ([1]; Visit No. 6): 13.5
Table 3 (untitled, lesion count), Min. ([1]; Visit No. 6): 0
Table 4 (untitled, change of Table 3 count versus Visit 2), Max. ([1]; Visit No. 6): −12
Table 4 (untitled, change of Table 3 count versus Visit 2), Mean ([1]; Visit No. 6): −43.4
Table 4 (untitled, change of Table 3 count versus Visit 2), Median ([1]; Visit No. 6): −34.0
Table 4 (untitled, change of Table 3 count versus Visit 2), Min. ([1]; Visit No. 6): −165
Table 6 (untitled, summary of Table 5 lesion count), Max. ([1]; Visit No. 6): 65
Table 6 (untitled, summary of Table 5 lesion count), Mean ([1]; Visit No. 6): 22.6
Table 6 (untitled, summary of Table 5 lesion count), Median ([1]; Visit No. 6): 26.0
Table 6 (untitled, summary of Table 5 lesion count), Min. ([1]; Visit No. 6): 0
Table 7 (untitled, change of Table 6 count versus Visit 2), Max. ([1]; Visit No. 6): −22
Table 7 (untitled, change of Table 6 count versus Visit 2), Mean ([1]; Visit No. 6): −58.6
Table 7 (untitled, change of Table 6 count versus Visit 2), Median ([1]; Visit No. 6): −58.5
Table 7 (untitled, change of Table 6 count versus Visit 2), Min. ([1]; Visit No. 6): −165
Table 5 (untitled, lesion count per subject) ([1]; Visit No. 6): 0 (2×) and 1 (2×) and 3 (2×) and 25 and 37 and 22 and 34 (2×) and 29 and 41 and 40 and 27 and 65
Table 3 (untitled, lesion count), Max. ([1]; Visit No. 7): 56
Table 3 (untitled, lesion count), Mean ([1]; Visit No. 7): 13.3
Table 3 (untitled, lesion count), Median ([1]; Visit No. 7): 8.0
Table 3 (untitled, lesion count), Min. ([1]; Visit No. 7): 0
Table 4 (untitled, change of Table 3 count versus Visit 2), Max. ([1]; Visit No. 7): −14
Table 4 (untitled, change of Table 3 count versus Visit 2), Mean ([1]; Visit No. 7): −42.9
Table 4 (untitled, change of Table 3 count versus Visit 2), Median ([1]; Visit No. 7): −35.0
Table 4 (untitled, change of Table 3 count versus Visit 2), Min. ([1]; Visit No. 7): −159
Table 6 (untitled, summary of Table 5 lesion count), Max. ([1]; Visit No. 7): 71
Table 6 (untitled, summary of Table 5 lesion count), Mean ([1]; Visit No. 7): 21.3
Table 6 (untitled, summary of Table 5 lesion count), Median ([1]; Visit No. 7): 13.5
Table 6 (untitled, summary of Table 5 lesion count), Min. ([1]; Visit No. 7): 0
Table 7 (untitled, change of Table 6 count versus Visit 2), Max. ([1]; Visit No. 7): −22
Table 7 (untitled, change of Table 6 count versus Visit 2), Mean ([1]; Visit No. 7): −59.9
Table 7 (untitled, change of Table 6 count versus Visit 2), Median ([1]; Visit No. 7): −52.5
Table 7 (untitled, change of Table 6 count versus Visit 2), Min. ([1]; Visit No. 7): −178
Table 5 (untitled, lesion count per subject) ([1]; Visit No. 7): 0 (2×) and 4 and 2 and 1 and 5 and 38 and 25 and 39 and 6 and 35 and 21 and 71 and 31 and 60 and 3
Percent Responders (≧50% reduction in inflammatory lesions) ([1]; Week 4, 1 mg oral daily): 31%
No. of Responders (≧50% reduction in inflammatory lesions) ([1]; Week 4): 5
Percent Responders (≧50% reduction in inflammatory lesions) ([1]; Week 8, 1 mg oral daily): 56%
No. of Responders (≧50% reduction in inflammatory lesions) ([1]; Week 8): 9
Percent Responders (≧50% reduction in inflammatory lesions) ([1]; Week 12, 1 mg oral daily): 100%
No. of Responders (≧50% reduction in inflammatory lesions) ([1]; Week 12): 16
Percent Responders (≧50% reduction in inflammatory lesions) ([1]; Week 16 (follow-up)): 88%
No. of Responders (≧50% reduction in inflammatory lesions) ([1]; Week 16 (follow-up)): 14
average lesion reduction ([1]; after 12 weeks, 1 mg oral daily): 79%
time within which inflammatory lesions responded ([1]; rambazole-treated inflammatory lesions, in contrast with retinoids such as isotretinoin): ≤ 4 weeks
IP-10 expression and secretion (IP-10): dose-dependently down regulated
